Source: patent US9573969B2, “Compounds and compositions as kinase inhibitors” (NOVARTIS AG, priority 2014, dated 2017)
≈ marks a conversion by molar mass, not a printed value. Read-outs that look alike come from different tables or passages of the source.

Legend:
C-Raf = biological target: T1, C-Raf (Homo sapiens, UniProt P04049, Y340E/Y341E); experiment: In Vitro Raf Activity Determination (Alpha Screen, phosphorylation of kinase dead MEK1); type: biochemical
T1 construct: His tag (implied by nickel chromatography) and/or StrepII tag; made in house; host or cells: Sf9 insect cells (baculovirus) for CRAF and h14-3-3 zeta; E. coli for MEK1
T1 sequence (P04049 whole entry Y340E/Y341E): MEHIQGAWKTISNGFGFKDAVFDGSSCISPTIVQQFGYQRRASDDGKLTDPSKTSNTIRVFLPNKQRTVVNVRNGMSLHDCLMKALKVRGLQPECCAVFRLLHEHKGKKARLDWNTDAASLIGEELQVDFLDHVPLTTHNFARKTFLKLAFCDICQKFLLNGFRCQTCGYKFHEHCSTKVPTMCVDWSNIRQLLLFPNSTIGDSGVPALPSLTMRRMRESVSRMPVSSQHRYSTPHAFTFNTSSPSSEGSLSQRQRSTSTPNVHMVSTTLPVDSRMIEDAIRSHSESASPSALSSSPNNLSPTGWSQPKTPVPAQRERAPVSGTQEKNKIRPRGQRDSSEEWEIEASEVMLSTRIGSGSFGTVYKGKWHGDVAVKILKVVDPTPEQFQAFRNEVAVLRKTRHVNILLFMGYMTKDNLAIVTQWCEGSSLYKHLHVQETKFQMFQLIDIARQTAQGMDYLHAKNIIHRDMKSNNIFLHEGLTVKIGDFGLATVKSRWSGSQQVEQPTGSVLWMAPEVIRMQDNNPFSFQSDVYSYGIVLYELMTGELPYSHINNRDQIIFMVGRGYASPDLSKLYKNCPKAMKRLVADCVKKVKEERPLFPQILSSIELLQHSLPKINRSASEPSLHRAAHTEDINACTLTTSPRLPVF
T1 sequence (P63104 whole entry partner): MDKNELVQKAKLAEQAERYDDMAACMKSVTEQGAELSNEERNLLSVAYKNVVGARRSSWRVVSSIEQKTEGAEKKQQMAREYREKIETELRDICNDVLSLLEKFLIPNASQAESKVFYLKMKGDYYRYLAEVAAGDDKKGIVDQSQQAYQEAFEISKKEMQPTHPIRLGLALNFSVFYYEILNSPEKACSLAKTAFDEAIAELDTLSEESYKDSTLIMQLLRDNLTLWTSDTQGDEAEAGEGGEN
Description: CRAF cDNA was subcloned as full length protein, with Y340E and Y341E activating mutations, into a baculovirus expression vector for Sf9 insect cell expression. h14-3-3 zeta cDNA was subcloned into a baculovirus expression vector for SF9 insect cell expression. Sf9 cells co-expressing both proteins were lysed and subjected to immobilized nickel chromatography and eluted with Imidazole. A second column (StrepII binding column) was used and eluted with desthiobiotin. Protein Tags were removed using Prescission enzyme and the protein was further purified using a flowthrough step to remove tags.
C-Raf TR refers to a truncated C-Raf protein, a Δ1-324 deletion mutant. C-Raf FL refers to the full-length C-Raf protein.
Full length MEK1 with an inactivating K97R ATP binding site mutation is utilized as a RAF substrate. The MEK1 cDNA was subcloned with an N-terminal (his)6 tag into a vector for E. Coli expression. The MEK1 substrate was purified from E. Coli lysate by nickel affinity chromatography followed by anion exchange. The final MEK1 preparation was biotinylated (Pierce EZ-Link Sulfo-NHS-LC-Biotin) and concentrated.
Assay Materials: Assay buffer is 50 mM Tris, pH 7.5, 15 mM MgCl2, 0.01% Bovine Serum Albumin (BSA) and 1 mM dithiothreitol (DTT); Stop buffer is 60 mM ethylenediaminetetraacetic acid (EDTA) and 0.01% Tween® 20; b-Raf (V600E), active; biotinylated Mek, kinase dead; Alpha Screen detection kit (available from PerkinElmer™ #6760617R); Anti phospho-MEK1/2 (available from Cell Signaling Technology, Inc. #9121); 384 well low volume assay plates (White Greiner® plates).
Assay conditions: b-Raf (V600E) approximately 4 pM; c-Raf approximately 4 nM; biotinylated Mek, kinase dead approximately 10 nM; ATP 10 μM for BRAF (V600E) and 1 μM for CRAF; Pre-incubation time with compounds 60 minutes at room temperature; Reaction time 1 or 3 hours at room temperature.
Assay protocol: Raf and biotinylated Mek (kinase dead) were combined at 2× final concentrations in assay buffer (50 mM Tris, pH 7.5, 15 mM MgCl2, 0.01% BSA and 1 mM DTT) and dispensed […] per well in assay plates (Greiner white 384 well assay plates #781207) containing […] of 40× of a Raf kinase inhibitor test compound diluted in 100% DMSO. The plate was incubated for 60 minutes at room temperature. The Raf kinase activity reaction was started by the addition of […] per well of 2×ATP diluted in assay buffer. After 3 hours (b-Raf(V600E)) or 1 hour (c-Raf). The reactions were stopped and the phosphorylated product was measured using a rabbit anti-p-MEK (Cell Signaling, #9121) antibody and the Alpha Screen IgG (ProteinA) detection Kit (PerkinElmer #6760617R), by the addition of […] to the well of a mixture of the antibody (1:2000 dilution) and detection beads (1:2000 dilution of both beads) in Stop/bead buffer (25 mM EDTA, 50 mM Tris, pH 7.5, 0.01% Tween20). The additions were carried out under dark conditions to protect the detection beads from light. A lid was placed on top of the plate and incubated for 1 hour at room temperature, after which the luminescence was read on a PerkinElmer Envision instrument. The concentration of each compound for 50% inhibition (IC50) was calculated by non-linear regression using XL Fit data analysis software.

[1] = high throughput solubility assay; type: physicochemical; conditions: for solubility: buffer solution, thermodynamic from solid
Description: Solubility of the compounds of the invention was assessed in a high throughput solubility assay: compounds were received as 10 mM DMSO solutions. The DMSO stock solution was then transferred into a microtiter plate. The DMSO solvent was dried with a solvent evaporator (GeneVac). After the addition of buffer solution (pH 6.8, pH 4.0 or FaSSIF), the plate was sealed and shaken for 16-24 hours at room temperature. The plate was centrifuged for phase separation and the supernatant quantified by a RapidFire 365 High-throughput MS System (Agilant) coupled with a mass spectrometer (Sciex), using a calibration curve constructed with the same DMSO stock solution. Solubility results (μM) are obtained in triplicate.

[2] = c-Raf approximately 4 nM, ATP 1 μM, pre-incubation 60 minutes, reaction 1 hour at room temperature, read-out: C-Raf
[3] = phosphate Example itself, buffer (pH 6.8, pH 4.0 or FaSSIF) not given, 16-24 hours at room temperature

Row | Structure (SMILES) | IC50 (C-Raf; read-out: inhibitory efficacy for C-Raf) [nM] | improvement of solubility compared with the corresponding non-phosphate molecule ([1]; 874 μM versus 18 μM) | solubility ([1]; buffer not stated) [µM] | IC50 (C-Raf; [2]) [nM] | solubility [1, 3] [µM]
1 | Cc1ccc(NC(=O)c2ccnc(C(F)(F)F)c2)cc1-c1cc(OCCOP(=O)(O)O)nc(N2CCOCC2)c1 [Example 1, 2-((4-(2-methyl-5-(2-(trifluoromethyl)isonicotinamido)phenyl)-6-morpholinopyridin-2-yl)oxy)ethyl dihydrogen phosphate] | 0.1 | greater than 48 fold | 874 |  | 
2 | Cc1ccc(NC(=O)c2cccc(C(F)(F)F)c2)cc1-c1cc(OCCOP(=O)(O)O)nc(N2CCOC[C@H]2C)c1 [Example 2, (R)-2-((4-(2-methyl-5-(3-(trifluoromethyl)benzamido)phenyl)-6-(3-methylmorpholino)pyridin-2-yl)oxy)ethyl dihydrogen phosphate] |  |  |  | 6 | < 1000
3 | Cc1ccc(NC(=O)c2cc(C(F)(F)F)ccn2)cc1-c1cc(OC[C@@H](O)COP(=O)(O)O)nc(N2CCOCC2)c1 [Example 3, (R)-2-hydroxy-3-((4-(2-methyl-5-(4-(trifluoromethyl)picolinamido)phenyl)-6-morpholinopyridin-2-yl)oxy)propyl dihydrogen phosphate] |  |  |  | 0.024 | 987
4 | Cc1ncc(NC(=O)c2cccc(C(F)(F)F)c2)cc1-c1cc(OCCOP(=O)(O)O)nc(N2CCOC[C@H]2C)c1 [Example 4, (R)-2-((2-methyl-6′-(3-methylmorpholino)-5-(3-(trifluoromethyl)-benzamido)-[3,4′-bipyridin]-2′-yl)oxy)-ethyl dihydrogen phosphate] |  |  |  | 0.7 | 617
5 | Cc1ncc(NC(=O)c2cccc(C(F)(F)F)c2)cc1-c1cc(OCCOP(=O)(O)O)nc(N2CCOCC2)c1 [Example 5, 2-((2-methyl-6′-morpholino-5-(3-(trifluoromethyl)benz amido)-[3,4′-bipyridin]-2′-yl)oxy)ethyl dihydrogen phosphate] |  |  |  | 0.1 | 725
6 | Cc1ccc(NC(=O)c2ccnc(C(C)(F)F)c2)cc1-c1cc(OCCOP(=O)(O)O)nc(N2CCOC[C@H]2C)c1 [Example 6, (R)-2-((4-(5-(2-(1,1-difluoroethyl)isonicotin amido)-2-methylphenyl)-6-(3-methylmorpholino)pyridin-2-yl)oxy)ethyl dihydrogen phosphate] |  |  |  | 0.3 | 675
7 | Cc1ccc(NC(=O)c2cccc(C(F)(F)F)c2)cc1-c1cc(OCCOP(=O)(O)O)nc(N2CCOCC2)c1 [Example 7, 2-((4-(2-methyl-5-(3-(trifluoromethyl)benzamido)phenyl)-6-morpholinopyridin-2-yl)oxy)ethyl dihydrogen phosphate] |  |  |  | 0.05 | 124
8 | Cc1ccc(NC(=O)c2ccnc(C(C)(C)F)c2)cc1-c1cc(OCCOP(=O)(O)O)nc(N2CCOCC2)c1 [Example 9, 2-((4-(5-(2-(2-fluoropropan-2-yl)isonicotinamido)-2-methylphenyl)-6-morpholinopyridin-2-yl)oxy)ethyl dihydrogen phosphate] |  |  |  | 0.5 | 841
9 | Cc1ccc(NC(=O)c2ccnc(C(C)(F)F)c2)cc1-c1cc(OCCOP(=O)(O)O)nc(N2CCOCC2)c1 [Example 10, 2-((4-(5-(2-(1,1-difluoroethyl)isonicotin amido)-2-methylphenyl)-6-morpholinopyridin-2-yl)oxy)ethyl dihydrogen phosphate] |  |  |  | 0.3 | 635
10 | Cc1ccc(NC(=O)c2ccnc(C(C)(C)F)c2)cc1-c1cc(OCCOP(=O)(O)O)nc(N2CCOC[C@H]2C)c1 [Example 11, (R)-2-((4-(5-(2-(2-fluoropropan-2-yl)isonicotinamido)-2-methylphenyl)-6-(3-methylmorpholino)pyridin-2-yl)oxy)ethyl dihydrogen phosphate] |  |  |  | 2 | < 1000
11 | Cc1ccc(NC(=O)c2ccnc(C(F)(F)F)c2)cc1-c1cc(OCCOP(=O)(O)O)nc(N2CCOC[C@H]2C)c1 [Example 12, (R)-2-((4-(2-methyl-5-(2-(trifluoromethyl)-isonicotinamido)phenyl)-6-(3-methyl-morpholino)pyridin-2-yl)oxy)ethyl dihydrogen phosphate] |  |  |  | 2 | 939
12 | Cc1ccc(NC(=O)c2ccnc(C(F)(F)F)c2)cc1-c1cnc(OCCOP(=O)(O)O)c(N2CCOCC2)c1 [Example 13, 2-((5-(2-methyl-5-(2-(trifluoromethyl)isonicotinamido)phenyl)-3-morpholinopyridin-2-yl)oxy)ethyl dihydrogen phosphate] |  |  |  | 0.03 | 792
13 | Cc1ccc(NC(=O)c2ccnc(C(C)(F)F)c2)cc1-c1cnc(OCCOP(=O)(O)O)c(N2CCOCC2)c1 [Example 14, 2-((5-(5-(2-(1,1-difluoroethyl)isonicotin amido)-2-methylphenyl)-3-morpholinopyridin-2-yl)oxy)ethyl dihydrogen phosphate] |  |  |  | 0.04 | 897
14 | Cc1ccc(NC(=O)c2ccnc(C(C)(C)F)c2)cc1-c1cnc(OCCOP(=O)(O)O)c(N2CCOCC2)c1 [Example 15, 2-((5-(5-(2-(2-fluoropropan-2-yl)isonicotinamido)-2-methylphenyl)-3-morpholinopyridin-2-yl)oxy)ethyl dihydrogen phosphate] |  |  |  | 0.4 | 936
15 | Cc1ccc(NC(=O)c2cccc(C(F)(F)F)c2)cc1-c1cnc(OCCOP(=O)(O)O)c(N2CCOCC2)c1 [Example 16, 2-((5-(2-methyl-5-(3-(trifluoromethyl)benzamido)phenyl)-3-morpholinopyridin-2-yl)oxy)ethyl dihydrogen phosphate] |  |  |  | 1 | < 1000
16 | Cc1ccc(NC(=O)c2cc(C(F)(F)F)ccn2)cc1-c1cc(OCCOP(=O)(O)O)nc(N2CCOCC2)c1 [Example 17, 2-((4-(2-methyl-5-(4-(trifluoromethyl)picolin amido)phenyl)-6-morpholinopyridin-2-yl)oxy)ethyl dihydrogen phosphate] |  |  |  | 0.02 | 253
17 | Cc1ncc(NC(=O)c2cccc(C(F)(F)F)c2)cc1-c1cnc(OCCOP(=O)(O)O)c(N2CCOCC2)c1 [Example 18, 2-((2′-methyl-5-morpholino-5′-(3-(trifluoromethyl)benzamido)-[3,3′-bipyridin]-6-yl)oxy)ethyl dihydrogen phosphate] |  |  |  | 0.02 | 
18 | Cc1ccc(NC(=O)c2ccnc(C(F)(F)F)c2)cc1-c1cc(OCCO)nc(N2CCOCC2)c1 [N-(3-(2-(2-hydroxyethoxy)-6-morpholinopyridin-4-yl)-4-methylphenyl)-2-(trifluoromethyl)isonicotinamide, reference compound] |  |  | 18 (≈ 9.04 µg/mL) |  | 
